Ends that are not written are not given here.
What was measured:
db/db mice = experiment: Healing of skin ulcers (full-thickness back wound) in db/db mice; assay type: in vivo, mouse; settings: for Wound healing rate: db/db mice, topical, polypeptide 30 μg/cm^2 qd, GeneTime 40 IU/cm^2 qd, Kangfuxin Ye 40 μL/mouse Bid, Mean ± SD, n = 10
Protocol: Experimental animals: Diabetic model mice (db/db male mice), normal mice (m/m male mice), SPF grade, 8-10 weeks of age, weighting 40-50 g, from Changzhou Cavens Experimental Animal Co., Ltd., with the experimental animal production license number of SCXK (Su) 2016-0010, and the experimental animal use license number of SYXK (Shanghai) 2020-0038.
Experimental method: After the blood glucose of the db/db mice reached the standard (blood glucose after fasting for 4 h>16.7 mmol/L), the mice were randomly divided into 5 groups with 10 mice in each group, namely, normal control group, model control group, Kangfuxin Ye group (40 μL per mouse), GeneTime group (40 IU/cm^2), the subject polypeptide group (30 μg/cm^2). After the mice were anesthetized with isoflurane inhalation, a circular wound with a diameter of about 12 mm was cut on the back of the mice with a cutter from the full layers of the skin to reach the fascia layer. The wound was photographed and the wound area was recorded as the baseline value (the wound was recorded as Day0). From the next day (Day 1), the animals in each group were administered as required, and all the skin wounds were applied externally. Both the normal control group and the model control group were given 40 μL of normal saline, and the GeneTime group (40 IU/cm^2) was given Recombinant human epidermal growth factor topical solution diluted in 40 μL of normal saline (Shenzhen Watsin Genetech Ltd.), and the subject polypeptide group (30 μg/cm^2) was given the corresponding concentration of the polypeptide prepared by using 40 μL normal saline, once a day; the Kangfuxin Ye group was given 40 μL of Kangfuxin Ye (SICHUAN GOODDOCTOR PANXI PHARMACEUTICAL CO., LTD.), twice a day. Administration was continued every day until the wound was basically healed. The skin wounds were measured and photographed twice a week, the areas of the wounds were calculated with the Image-J software, and the healing of the wounds in each group of animals was observed.

[1] = tested on: RSC96 cells (Rat Schwann cells); experiment: Proliferation of RSC96 cells (CCK-8); assay type: cell-based; settings: 48 hours, 0% serum medium, FIG. 4
Protocol: Experimental method: Rat Schwann cells (RSC96 cells) were adjusted to a concentration of 1.0*10^5 to 5.0*10^5/mL for passaging, and cultured at 37° C. and 5% CO2 for 24-36 hours for the biological activity detection. The cells were digested by trypsin, collected, prepared into a concentration of 5*10^4/mL with a serum-free medium, seeded in a 96-well cell culture plate with 100 μL per well, i.e., […], and cultured overnight at 37° C. and 5% CO2.
The polypeptide was dissolved in PBS solution and prepared into a stock solution with a concentration of 400 ug/ml. The polypeptide stock solution was prepared with 0% serum medium to test concentrations as the experimental groups; and for the control group, the same volume of 0% serum medium without drugs was added. For all the groups, 4 duplicate wells were incubated at 37° C. and 5% CO2 for 48 hours. The CCK-8 was used to detect cell proliferation: the old medium was removed, the serum-free medium containing 10% CCK-8 was added to each well, and absorbances were measured at 450 nm by microplate reader after incubation in an incubator for 2 hours.

[2] = tested on: STZ-induced diabetic rats; experiment: Healing of skin ulcer in streptozotocin (STZ)-induced diabetic rats; assay type: in vivo, rat; settings: for Wound healing rates of diabetic rats: Mean ± SD, n = 15
Protocol: Experimental animals: After SPF grade male healthy SD rats (weighing 180-200 g) were fed with high-fat and high-sugar diet for 2 weeks and fasted for 6 hours, each rat was rapidly injected with an STZ solution (50 mg kg^−1) intraperitoneally at one time, and 48 hours later, the random blood glucose values were >16.7 mmol/L twice, indicating the successful establishment of type II diabetic rat model. Experimental animals were purchased from Beijing Vital River Laboratory Animal Technology Co., Ltd., with the experimental animal quality certification number of SCXK (Beijing) 2017-0033, and the experimental animal use license number of SCXK (Beijing) 2017-0033.
Experimental method: 90 diabetic rats were selected and randomly divided into 6 groups with 15 rats in each group, namely, model control group (normal saline), high-dose polypeptide group (30 μg/cm^2), medium-dose polypeptide group (10 μg/cm^2), and low-dose polypeptide group (3 μg/cm^2), GeneTime group (40 IU/cm^2, recombinant human epidermal growth factor topical solution, from Shenzhen Watsin Genetech Ltd.), and Kangfuxin Ye group (36 μL/cm^2, Kangfuxinye, from SICHUAN GOODDOCTOR PANXI PHARMACEUTICAL CO., LTD.). After each experimental rat was anesthetized by intraperitoneal injection of 2% pentobarbital sodium (0.2 mL/100 g), a 2 cm^2 full-layer skin defect wound was prepared at each of both sides of the back spine, and a rubber ring with a diameter of 2.3 cm was stitched at the outer edge of the wound. After hemostasis of the wound, local drug therapy at the wound was carried out by group. Except that the Kangfuxin Ye group was administered 2 times/day, other groups were administered once a day, with a dosed volume of 72 μL/wound each time, for 14 consecutive days. After the administration, the wound was covered with a sterile vaseline gauze (5 cm*5 cm), and bandaged with multi-layer sterile gauzes. After the wound surgery, the wound was photographed, and the wound area was recorded as the baseline value (the wound was recorded as Day0). During the administration period, the wound areas were photographed and measured 3 times a week, and the granulation tissue growth and healing of wound in each group were observed every day.

Which Wound healing rate (db/db mice; Day 0 (baseline)) does the source give for PAAEPVPL [polypeptide] here?
Its Wound healing rate is 0.00 ± 0.00%.

What about the Wound healing rate (db/db mice; Day 3) of the same sequence?
The Wound healing rate was −4.66 ± 17.55%.

What about the Wound healing rate (db/db mice; Day 7) of the same sequence?
The Wound healing rate was 13.06 ± 17.65%.

And the Wound healing rate (db/db mice; Day 10)?
The Wound healing rate was 40.91 ± 16.33%.

What about the Wound healing rate (db/db mice; Day 14) of the same sequence?
Its Wound healing rate is 89.44 ± 8.99 %.

What about the “Skin wound healing in diabetic mice (statement in words)” value (db/db mice; day 14, 30 μg/cm^2 qd, vs model control) of the same sequence?
The value was “significantly promote skin wound healing”.

And the “Proliferation-promoting effect on the RSC96 cell line” value [1]?
The value was “significant effect of promoting proliferation”.

What about the “Formation rate of new granulation tissues” value ([2]; 3rd day after injury, low-, medium- and high-dose (3, 10, 30 μg/cm^2), vs model control, FIG. 8) of the same sequence?
The value was “promoted the growth rate of new granulation tissue compared to the model control group with significant differences”.

What about the “Wound healing rates of diabetic rats” value ([2]; Day 0 (baseline), high-dose 30 μg/cm^2, topical once a day) of the same sequence?
The value was 0.00 ± 0.00%.

And the “Wound healing rates of diabetic rats” value ([2]; Day 0 (baseline), low-dose 3 μg/cm^2, topical once a day)?
Its value is 0.00 ± 0.00%.

And the “Wound healing rates of diabetic rats” value ([2]; Day 0 (baseline), medium-dose 10 μg/cm^2, topical once a day)?
The value was 0.00 ± 0.00%.

And the “Wound healing rates of diabetic rats” value ([2]; Day 3, high-dose 30 μg/cm^2, topical once a day)?
The value was 6.82 ± 19.81%.

What about the “Wound healing rates of diabetic rats” value ([2]; Day 3, low-dose 3 μg/cm^2, topical once a day) of the same sequence?
Its value is 3.05 ± 8.10%.

What about the “Wound healing rates of diabetic rats” value ([2]; Day 3, medium-dose 10 μg/cm^2, topical once a day) of the same sequence?
The value was 5.04 ± 9.31%.

And the “Wound healing rates of diabetic rats” value ([2]; Day 7, high-dose 30 μg/cm^2, topical once a day)?
The value was 62.62 ± 12.24%.

And the “Wound healing rates of diabetic rats” value ([2]; Day 7, low-dose 3 μg/cm^2, topical once a day)?
Its value is 54.67 ± 18.10%.

What about the “Wound healing rates of diabetic rats” value ([2]; Day 7, medium-dose 10 μg/cm^2, topical once a day) of the same sequence?
Its value is 57.57 ± 10.49%.

And the “Wound healing rates of diabetic rats” value ([2]; Day 10, high-dose 30 μg/cm^2, topical once a day)?
Its value is 88.49 ± 5.17 %.

And the “Wound healing rates of diabetic rats” value ([2]; Day 10, low-dose 3 μg/cm^2, topical once a day)?
Its value is 84.05 ± 10.21%.

What about the “Wound healing rates of diabetic rats” value ([2]; Day 10, medium-dose 10 μg/cm^2, topical once a day) of the same sequence?
The value was 84.26 ± 9.10%.

What about the “Wound healing rates of diabetic rats” value ([2]; Day 12, high-dose 30 μg/cm^2, topical once a day) of the same sequence?
The value was 98.39 ± 2.39%.

And the “Wound healing rates of diabetic rats” value ([2]; Day 12, low-dose 3 μg/cm^2, topical once a day)?
The value was 95.92 ± 5.82%.

What about the “Wound healing rates of diabetic rats” value ([2]; Day 12, medium-dose 10 μg/cm^2, topical once a day) of the same sequence?
Its value is 97.77 ± 3.71%.

And the “Wound healing rates of diabetic rats” value ([2]; Day 14, high-dose 30 μg/cm^2, topical once a day)?
The value was 99.85 ± 0.77%.

What about the “Wound healing rates of diabetic rats” value ([2]; Day 14, low-dose 3 μg/cm^2, topical once a day) of the same sequence?
Its value is 99.46 ± 1.46%.

What about the “Wound healing rates of diabetic rats” value ([2]; Day 14, medium-dose 10 μg/cm^2, topical once a day) of the same sequence?
The value was 99.85 ± 0.84%.

And the “Wound healing in diabetic rats (statement in words)” value ([2]; high-dose 30 μg/cm^2, vs model control, Day 10)?
Its value is “significant healing promoting effect”.

And the “Wound healing in diabetic rats (statement in words)” value ([2]; low and medium doses (3 and 10 μg/cm^2), Day 10, vs model control)?
The value was “tendency to promote the wound healing”.
